Legend:
large (Lg) crabgrass [1] = test: Test C postemergence; assay type: in vivo, Digitaria sanguinalis; conditions: for Plant response rating (0 to 100), Crabgrass, Large: 16 g ai/ha, 0 is no effect, 100 is complete control; for Crabgrass, Large plant response rating: 31 g ai/ha, 13 to 15 days; for Crabgrass, Large plant response rating / Plant response rating, Crabgrass, Large: scale 0 to 100 (0 no effect, 100 complete control)
Summary of the method: (§1)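 Sown in loam/sand → sprayed pre-emergence; or grown to 1–4 leaves in peat mix → sprayed post-emergence. Same solvent/surfactant formulation both ways. Greenhouse 13–15 d. Score 0–100 visual.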

johnsongrass = test: Test C postemergence; assay type: in vivo, Sorghum halepense; conditions: for Plant response rating (0 to 100), Johnsongrass: 16 g ai/ha, 0 is no effect, 100 is complete control; for Johnsongrass plant response rating: 31 g ai/ha, 13 to 15 days; for Johnsongrass plant response rating / Plant response rating, Johnsongrass: scale 0 to 100 (0 no effect, 100 complete control)
Summary of the method: as §1

large (Lg) crabgrass [2] = test: Test A preemergence; assay type: in vivo, Digitaria sanguinalis; conditions: for Crabgrass, Large plant response rating (0 to 100 scale): 125 g ai/ha; for Crabgrass, Large plant response rating: 500 g ai/ha, 0 to 100 scale where 0 is no effect and 100 is complete control
Summary of the method: (§2)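 Pre- and postemergence greenhouse screen. Soil: loam + sand. Spray carrier: solvent mixture, non-phytotoxic, with surfactant. Post timing at 1–2 leaves, height 2–10 cm. Readout: visual injury on a 0–100 scale roughly 10 days after application, untreated plants as reference.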

wild oat = test: Test C postemergence; assay type: in vivo, Avena fatua; conditions: for Plant response rating (0 to 100), Oat, Wild: 16 g ai/ha, 0 is no effect, 100 is complete control; for Oat, Wild plant response rating: 31 g ai/ha, 13 to 15 days; for Oat, Wild plant response rating / Plant response rating, Oat, Wild: scale 0 to 100 (0 no effect, 100 complete control)
Summary of the method: as §1

morningglory [3] = test: Test A preemergence; assay type: in vivo, Ipomoea spp.; conditions: for Morningglory plant response rating (0 to 100 scale): 125 g ai/ha; for Morningglory plant response rating: 500 g ai/ha, 0 to 100 scale where 0 is no effect and 100 is complete control
Summary of the method: as §2

velvetleaf = test: Test A preemergence; assay type: in vivo, Abutilon theophrasti; conditions: for Velvetleaf plant response rating (0 to 100 scale): 125 g ai/ha; for Velvetleaf plant response rating: 500 g ai/ha, 0 to 100 scale where 0 is no effect and 100 is complete control
Summary of the method: as §2

morningglory [4] = test: Test A postemergence; assay type: in vivo, Ipomoea spp.; conditions: 0 to 100 scale where 0 is no effect and 100 is complete control; for Morningglory plant response rating: 125 g ai/ha; for Plant response rating, Morningglory: 500 g ai/ha
Summary of the method: as §2

Italian ryegrass = test: Test C postemergence; assay type: in vivo, Lolium multiflorum; conditions: for Plant response rating (0 to 100), Ryegrass, Italian: 16 g ai/ha, 0 is no effect, 100 is complete control; for Ryegrass, Italian plant response rating: 31 g ai/ha, 13 to 15 days; for Ryegrass, Italian plant response rating / Plant response rating, Ryegrass, Italian: scale 0 to 100 (0 no effect, 100 complete control)
Summary of the method: as §1

giant foxtail [5] = test: Test C postemergence; assay type: in vivo, Setaria faberii; conditions: for Plant response rating (0 to 100), Foxtail, Giant: 16 g ai/ha, 0 is no effect, 100 is complete control; for Foxtail, Giant plant response rating: 31 g ai/ha, 13 to 15 days; for Foxtail, Giant plant response rating / Plant response rating, Foxtail, Giant: scale 0 to 100 (0 no effect, 100 complete control)
Summary of the method: as §1

chickweed = test: Test C postemergence; assay type: in vivo, Stellaria media; conditions: for Plant response rating (0 to 100), Chickweed: 16 g ai/ha, 0 is no effect, 100 is complete control; for Chickweed plant response rating: 31 g ai/ha, 13 to 15 days; for Chickweed plant response rating / Plant response rating, Chickweed: scale 0 to 100 (0 no effect, 100 complete control)
Summary of the method: as §1

giant foxtail [6] = test: Test A preemergence; assay type: in vivo, Setaria faberii; conditions: for Foxtail, Giant plant response rating (0 to 100 scale): 125 g ai/ha; for Foxtail, Giant plant response rating: 500 g ai/ha, 0 to 100 scale where 0 is no effect and 100 is complete control
Summary of the method: as §2

waterhemp = test: Test C postemergence; assay type: in vivo, Amaranthus rudis; conditions: for Plant response rating (0 to 100), Waterhemp: 16 g ai/ha, 0 is no effect, 100 is complete control; for Waterhemp plant response rating: 31 g ai/ha, 13 to 15 days; for Waterhemp plant response rating / Plant response rating, Waterhemp: scale 0 to 100 (0 no effect, 100 complete control)
Summary of the method: as §1

blackgrass = test: Test C postemergence; assay type: in vivo, Alopecurus myosuroides; conditions: for Plant response rating (0 to 100), Blackgrass: 16 g ai/ha, 0 is no effect, 100 is complete control; for Blackgrass plant response rating: 31 g ai/ha, 13 to 15 days; for Blackgrass plant response rating / Plant response rating, Blackgrass: scale 0 to 100 (0 no effect, 100 complete control)
Summary of the method: as §1

yellow nutsedge = test: Test C postemergence; assay type: in vivo, Cyperus esculentus; conditions: for Plant response rating (0 to 100), Nutsedge, Yellow: 16 g ai/ha, 0 is no effect, 100 is complete control; for Nutsedge, Yellow plant response rating: 31 g ai/ha, 13 to 15 days; for Nutsedge, Yellow plant response rating / Plant response rating, Nutsedge, Yellow: scale 0 to 100 (0 no effect, 100 complete control)
Summary of the method: as §1

corn = test: Test C postemergence; assay type: in vivo, Zea mays; conditions: for Plant response rating (0 to 100), Corn: 16 g ai/ha, 0 is no effect, 100 is complete control; for Corn plant response rating: 31 g ai/ha, 13 to 15 days; for Corn plant response rating / Plant response rating, Corn: scale 0 to 100 (0 no effect, 100 complete control)
Summary of the method: as §1

[7] = 125 g ai/ha, postemergence, visual rating

`Clc1cnc(Oc2cccc(Cl)c2-n2cc(I)cn2)nc1` [Compound 181] was tested, and the “Plant response rating (0 to 100), Crabgrass, Large” value (large (Lg) crabgrass [1]; postemergence) was 5, the “Crabgrass, Large plant response rating” value (large (Lg) crabgrass [1]; postemergence, visual rating) was 5 and the “Plant response rating, Crabgrass, Large” value (large (Lg) crabgrass [1]; [7]) was 10. The “Plant response rating, Crabgrass, Large” value (large (Lg) crabgrass [1]; Postemergence, 62 g ai/ha) was 10, the “Plant response rating (0 to 100), Johnsongrass” value (johnsongrass; postemergence) was 0 and the “Johnsongrass plant response rating” value (johnsongrass; postemergence, visual rating) was 5. The “Plant response rating, Johnsongrass” value (johnsongrass; [7]) was 20, the “Plant response rating, Johnsongrass” value (johnsongrass; Postemergence, 62 g ai/ha) was 5 and the “Crabgrass, Large plant response rating (0 to 100 scale)” value (large (Lg) crabgrass [2]) was 100. For the same compound, the “Crabgrass, Large plant response rating” value (large (Lg) crabgrass [2]) was 100, the “Plant response rating (0 to 100), Oat, Wild” value (wild oat; postemergence) was 0 and the “Oat, Wild plant response rating” value (wild oat; postemergence, visual rating) was 5. For the same compound, the “Plant response rating, Oat, Wild” value (wild oat; [7]) was 5, the “Plant response rating, Oat, Wild” value (wild oat; Postemergence, 62 g ai/ha) was 5 and the “Morningglory plant response rating (0 to 100 scale)” value (morningglory [3]) was 0. For the same compound, the “Morningglory plant response rating” value (morningglory [3]) was 30, the “Velvetleaf plant response rating (0 to 100 scale)” value (velvetleaf) was 20 and the “Velvetleaf plant response rating” value (velvetleaf) was 40. The “Morningglory plant response rating” value (morningglory [4]) was 90, the “Plant response rating, Morningglory” value (morningglory [4]) was 100 and the “Plant response rating (0 to 100), Ryegrass, Italian” value (Italian ryegrass; postemergence) was 0. For the same compound, the “Ryegrass, Italian plant response rating” value (Italian ryegrass; postemergence, visual rating) was 0, the “Plant response rating, Ryegrass, Italian” value (Italian ryegrass; [7]) was 10 and the “Plant response rating, Ryegrass, Italian” value (Italian ryegrass; Postemergence, 62 g ai/ha) was 5. The “Plant response rating (0 to 100), Foxtail, Giant” value (giant foxtail [5]; postemergence) was 10, the “Foxtail, Giant plant response rating” value (giant foxtail [5]; postemergence, visual rating) was 10 and the “Plant response rating, Foxtail, Giant” value (giant foxtail [5]; [7]) was 10. The “Plant response rating, Foxtail, Giant” value (giant foxtail [5]; Postemergence, 62 g ai/ha) was 25, the “Plant response rating (0 to 100), Chickweed” value (chickweed; postemergence) was 55 and the “Chickweed plant response rating” value (chickweed; postemergence, visual rating) was 75. The “Plant response rating, Chickweed” value (chickweed; [7]) was 85, the “Plant response rating, Chickweed” value (chickweed; Postemergence, 62 g ai/ha) was 80 and the “Foxtail, Giant plant response rating (0 to 100 scale)” value (giant foxtail [6]) was 90. The “Foxtail, Giant plant response rating” value (giant foxtail [6]) was 100, the “Plant response rating (0 to 100), Waterhemp” value (waterhemp; postemergence) was 80 and the “Waterhemp plant response rating” value (waterhemp; postemergence, visual rating) was 85. For the same compound, the “Plant response rating, Waterhemp” value (waterhemp; [7]) was 98, the “Plant response rating, Waterhemp” value (waterhemp; Postemergence, 62 g ai/ha) was 85 and the “Plant response rating (0 to 100), Blackgrass” value (blackgrass; postemergence) was 5. The “Blackgrass plant response rating” value (blackgrass; postemergence, visual rating) was 5, the “Plant response rating, Blackgrass” value (blackgrass; [7]) was 25 and the “Plant response rating, Blackgrass” value (blackgrass; Postemergence, 62 g ai/ha) was 15. The “Plant response rating (0 to 100), Nutsedge, Yellow” value (yellow nutsedge; postemergence) was 0, the “Nutsedge, Yellow plant response rating” value (yellow nutsedge; postemergence, visual rating) was 0 and the “Plant response rating, Nutsedge, Yellow” value (yellow nutsedge; Postemergence, 62 g ai/ha) was 5. The “Plant response rating (0 to 100), Corn” value (corn; postemergence) was 5, the “Corn plant response rating” value (corn; postemergence, visual rating) was 5 and the “Plant response rating, Corn” value (corn; [7]) was 5. For the same compound, the “Plant response rating, Corn” value (corn; Postemergence, 62 g ai/ha) was 5.
For `FC(F)(F)c1cnn(-c2c(Br)cccc2Oc2ncc(Cl)cn2)c1` [Compound 191], the “Plant response rating (0 to 100), Crabgrass, Large” value (large (Lg) crabgrass [1]; postemergence) was 5, the “Crabgrass, Large plant response rating” value (large (Lg) crabgrass [1]; postemergence, visual rating) was 5 and the “Plant response rating, Crabgrass, Large” value (large (Lg) crabgrass [1]; [7]) was 10. For the same compound, the “Plant response rating, Crabgrass, Large” value (large (Lg) crabgrass [1]; Postemergence, 62 g ai/ha) was 5, the “Plant response rating (0 to 100), Johnsongrass” value (johnsongrass; postemergence) was 30 and the “Johnsongrass plant response rating” value (johnsongrass; postemergence, visual rating) was 10. The “Plant response rating, Johnsongrass” value (johnsongrass; [7]) was 10, the “Plant response rating, Johnsongrass” value (johnsongrass; Postemergence, 62 g ai/ha) was 15 and the “Crabgrass, Large plant response rating (0 to 100 scale)” value (large (Lg) crabgrass [2]) was 100. The “Crabgrass, Large plant response rating” value (large (Lg) crabgrass [2]) was 100, the “Plant response rating (0 to 100), Oat, Wild” value (wild oat; postemergence) was 5 and the “Oat, Wild plant response rating” value (wild oat; postemergence, visual rating) was 5. The “Plant response rating, Oat, Wild” value (wild oat; [7]) was 10, the “Plant response rating, Oat, Wild” value (wild oat; Postemergence, 62 g ai/ha) was 5 and the “Morningglory plant response rating (0 to 100 scale)” value (morningglory [3]) was 50. For the same compound, the “Morningglory plant response rating” value (morningglory [3]) was 70, the “Velvetleaf plant response rating (0 to 100 scale)” value (velvetleaf) was 80 and the “Velvetleaf plant response rating” value (velvetleaf) was 90. For the same compound, the “Morningglory plant response rating” value (morningglory [4]) was 80, the “Plant response rating, Morningglory” value (morningglory [4]) was 100 and the “Plant response rating (0 to 100), Ryegrass, Italian” value (Italian ryegrass; postemergence) was 0. The “Ryegrass, Italian plant response rating” value (Italian ryegrass; postemergence, visual rating) was 0, the “Plant response rating, Ryegrass, Italian” value (Italian ryegrass; [7]) was 5 and the “Plant response rating, Ryegrass, Italian” value (Italian ryegrass; Postemergence, 62 g ai/ha) was 5. For the same compound, the “Plant response rating (0 to 100), Foxtail, Giant” value (giant foxtail [5]; postemergence) was 10, the “Foxtail, Giant plant response rating” value (giant foxtail [5]; postemergence, visual rating) was 10 and the “Plant response rating, Foxtail, Giant” value (giant foxtail [5]; [7]) was 15. For the same compound, the “Plant response rating, Foxtail, Giant” value (giant foxtail [5]; Postemergence, 62 g ai/ha) was 10, the “Plant response rating (0 to 100), Chickweed” value (chickweed; postemergence) was 10 and the “Chickweed plant response rating” value (chickweed; postemergence, visual rating) was 80. The “Plant response rating, Chickweed” value (chickweed; [7]) was 98, the “Plant response rating, Chickweed” value (chickweed; Postemergence, 62 g ai/ha) was 80 and the “Foxtail, Giant plant response rating (0 to 100 scale)” value (giant foxtail [6]) was 100. The “Foxtail, Giant plant response rating” value (giant foxtail [6]) was 100, the “Plant response rating (0 to 100), Waterhemp” value (waterhemp; postemergence) was 80 and the “Waterhemp plant response rating” value (waterhemp; postemergence, visual rating) was 85. For the same compound, the “Plant response rating, Waterhemp” value (waterhemp; [7]) was 95, the “Plant response rating, Waterhemp” value (waterhemp; Postemergence, 62 g ai/ha) was 95 and the “Plant response rating (0 to 100), Blackgrass” value (blackgrass; postemergence) was 0. For the same compound, the “Blackgrass plant response rating” value (blackgrass; postemergence, visual rating) was 0, the “Plant response rating, Blackgrass” value (blackgrass; [7]) was 10 and the “Plant response rating, Blackgrass” value (blackgrass; Postemergence, 62 g ai/ha) was 5. For the same compound, the “Plant response rating (0 to 100), Nutsedge, Yellow” value (yellow nutsedge; postemergence) was 0, the “Nutsedge, Yellow plant response rating” value (yellow nutsedge; postemergence, visual rating) was 0 and the “Plant response rating, Nutsedge, Yellow” value (yellow nutsedge; [7]) was 5. The “Plant response rating, Nutsedge, Yellow” value (yellow nutsedge; Postemergence, 62 g ai/ha) was 5, the “Plant response rating (0 to 100), Corn” value (corn; postemergence) was 5 and the “Corn plant response rating” value (corn; postemergence, visual rating) was 5. The “Plant response rating, Corn” value (corn; [7]) was 10 and the “Plant response rating, Corn” value (corn; Postemergence, 62 g ai/ha) was 10.

From patent US9695155B2, “Herbicidal substituted pyrimidinyloxy benzene compounds” (E. I. DU PONT DE NEMOURS AND COMPANY, priority 2013, dated 2017)
